Assay results taken from patent US12636309B2, “Storage stable formulations of sulfated glycosaminoglycans and fragments derived therefrom for the treatment of pain and other medical conditions” (ADORA ANIMAL HEALTH CORPORATION, priority 2022, dated 2026).

What was measured:
[1] = Electrophoresis of polyanionic property on cellulose acetate membrane; type: physicochemical; details: 0.2 N hydrochloric acid, about 65 mA for 65 minutes; for DISTANCE (CM): electrophoretic migration from cathode end, toluidine blue stain
Description: The unique polyanionic property of polysulfated glycosaminoglycan (PSGAG) is determined by electrophoresis. A 70 mm cellulose acetate (CA) membrane, saturated with 0.2 N hydrochloric acid is suspended with contact between the cathode and anode of an electrophoresis chamber. A test solution of PSGA G containing about 1 microgram of PSGAG is applied to the cathode end of the strip. A current of about 65 mA is applied for 65 minutes. The CA membrane is removed from the tank, then stained with a 0.1% toluidine blue solution for 5 minutes. The CA membrane is rinsed with a sufficient quantity of water to remove the excess toluidine blue. On the strip, PSGAG appears as only one violet-blue spot at a distance of approximately 3 cm from its starting point.
The cathode is the negative terminal of the electrophoresis chamber. Anionic compounds, such as PSGAG, under an applied current will migrate towards the chamber's anode (i.e., its positive terminal). The polyanionic property of PSGAG was compared to hyaluronic acid, chondroitin sulfate A, chondroitin sulfate B (dermatan sulfate), chondroitin sulfate C, heparin sulfate and keratan sulfate using electrophoresis.

elastase = details: cited from earlier work
synovial membrane cells = synovial membrane cells in vitro; cited from earlier work
rabbit chondrocytes = details: cultured rabbit chondrocytes; cited from earlier work
hyaluronidases = details: cited from earlier work
cathepsin B1 = cathepsin B1 (Homo sapiens, UniProt P07858); details: cited from earlier work
[2] = tested on: Prostaglandin E2 (PGE2) synthesis; details: cited from earlier work
[3] = rabbits, IM injection; incl. articular cartilage, synovial fluid, kidneys, brain, liver, skin, heart; cited from earlier work
human chondrocytes = details: cultured human chondrocytes; cited from earlier work
serine proteinases = details: in vitro; cited from earlier work
stromelysin = stromelysin (Homo sapiens, UniProt P08254); details: cited from earlier work
Sequence of stromelysin (P08254 100-477): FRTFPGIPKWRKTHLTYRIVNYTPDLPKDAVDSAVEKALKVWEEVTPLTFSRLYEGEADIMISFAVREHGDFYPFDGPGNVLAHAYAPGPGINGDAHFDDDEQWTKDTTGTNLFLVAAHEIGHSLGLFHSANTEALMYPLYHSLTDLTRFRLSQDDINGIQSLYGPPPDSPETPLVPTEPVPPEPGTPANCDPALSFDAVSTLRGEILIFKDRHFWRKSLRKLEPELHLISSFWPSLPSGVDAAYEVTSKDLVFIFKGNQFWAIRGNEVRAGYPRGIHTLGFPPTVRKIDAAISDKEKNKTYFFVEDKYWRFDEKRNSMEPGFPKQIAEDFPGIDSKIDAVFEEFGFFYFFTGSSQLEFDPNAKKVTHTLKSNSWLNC

metalloproteases = details: cited from earlier work

## heparin sulfate
[1]
  DISTANCE (CM): 2.3 ± 0.0 (n = 2) CM

## hyaluronic acid
[1]
  DISTANCE (CM): 1.1 ± 0.1 (n = 2) CM

## chondroitin sulfate B (dermatan sulfate)
[1]
  DISTANCE (CM): 1.7 ± 0.0 (n = 2) CM

## keratan sulfate [Keratin Sulfate]
[1]
  DISTANCE (CM): 2.5 ± 0.1 (n = 2) CM

## chondroitin sulfate A
[1]
  DISTANCE (CM): 2.1 ± 0.0 (n = 2) CM

## chondroitin sulfate C
[1]
  DISTANCE (CM): 2.0 ± 0.3 (n = 2) CM

## polysulfated glycosaminoglycan [PSGAG]
elastase
  inhibition of elastase: inhibit
Synovial membrane cells
  effect on hyaluronic acid synthesis: specific potentiating effect
Rabbit chondrocytes
  synthesis of proteoglycan and hyaluronic acid: increased synthesis
hyaluronidases
  inhibition of hyaluronidases: inhibit
Cathepsin B1
  inhibition of cathepsin B1: inhibit
[2]
  inhibition of Prostaglandin E2 (PGE2) synthesis: inhibitor
[3]
  tissue distribution: distributed to all tissues studied
Human chondrocytes
  synthesis of proteoglycan and hyaluronic acid: increased synthesis
Serine proteinases
  inhibition of serine proteinases: significantly inhibit
[1]
  distance of the violet-blue spot from its starting point: approximately 3 cm
  DISTANCE (CM): 3.1 ± 0.3 (n = 12) CM
stromelysin
  inhibition of stromelysin: inhibit
metalloproteases
  inhibition of metalloproteases: inhibit
